Data reported in patent US12012398B2, “Bicyclic compounds as androgen receptor modulators” (NIDO BIOSCIENCES, INC., priority 2021, dated 2024).
Counter-ions that a name gives are not always drawn. Like-named read-outs stand apart in the source and are kept apart here.

Tested on: LNCaP cells expressing ARR2PB-FireflyLuc and CMV-RenillaLuc
Assay: LNCaP ARR2PB-FireflyLuc reporter assay, antagonist mode
Format: cell-based
Details: +0.5 nM DHT, 48 h at 37° C., read-out: LNCap Antagonist Archive: IC50
Method in brief: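 LNCaP cells carrying ARR2PB-firefly and CMV-Renilla luciferase reporters were exposed to compound with 0.5 nM DHT for 48 h at 37° C. Remaining activity was scaled between 0.5 nM DHT alone (high) and 10 uM enzalutamide + 0.5 nM DHT (low). IC50 from non-linear regression, reported in bins A–D.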

Which IC50 (Homo sapiens, LNCaP, 48 h) does the source give for CN(C(=O)c1cc2cccc(Cl)c2[nH]1)C12CC(C1)C2 [Example 82, N-[bicyclo[1.1.1]pentan-1-yl]-7-chloro-N-methyl-1H-indole-2-carboxamide] here?
Its IC50 is 100 to 1000 nM.

CN(C(=O)c1cc2ccnc(Cl)c2n1C)C12CC(F)(C1)C2 [Example 128, 7-chloro-N-{3-fluorobicyclo[1.1.1]pentan-1-yl}-N,1-dimethylpyrrolo[2,3-c]pyridine-2-carboxamide] was tested. Which IC50 did it give?
Its IC50 is 100 to 1000 nM.

What about the IC50 (Homo sapiens, LNCaP, 48 h) of the same molecule?
The IC50 was < 100 nM.

O=C(NC12CC(F)(C1)C2)c1cc2c(Cl)nccc2s1 [Example 158, 4-chloro-N-(3-fluorobicyclo[1.1.1]pentan-1-yl)thieno[3,2-c]pyridine-2-carboxamide] was tested. Which IC50 (Homo sapiens, LNCaP, 48 h) did it give?
The IC50 was 100 to 1000 nM.

Which IC50 (Homo sapiens, LNCaP, 48 h) does the source give for CC1OCCC1N(C)C(=O)c1cc2cccc(Cl)c2[nH]1 (centres unmarked) [Example 80, 7-chloro-N-methyl-N-(2-methyloxolan-3-yl)-1H-indole-2-carboxamide] here?
Its IC50 is 1000 to 10000 nM.

CC(C)N(Cc1ccco1)C(=O)c1cc2cccc(C#N)c2[nH]1 [Example 3, 7-cyano-N-(furan-2-ylmethyl)-N-isopropyl-1H-indole-2-carboxamide] was tested. Which IC50 (Homo sapiens, LNCaP, 48 h) did it give?
The IC50 was 1000 to 10000 nM.

For C[Si](C)(C)CCOCn1c(C(=O)NC23CC(O)(C2)C3)cc2cccc(Cl)c21 [Example 88, 7-chloro-N-(3-hydroxybicyclo[1.1.1]pentan-1-yl)-1-((2-(trimethylsilyl)ethoxy)methyl)-1H-indole-2-carboxamide], which IC50 (Homo sapiens, LNCaP, 48 h) is on record?
Its IC50 is 1000 to 10000 nM.

How did the IC50 (Homo sapiens, LNCaP, 48 h) turn out when O=C(c1cc2cccc(Cl)c2[nH]1)N1CCCC1 [Example 71, 7-chloro-2-(pyrrolidine-1-carbonyl)-1H-indole] was run?
Its IC50 is > 10000 nM.

With CN(C(=O)c1cc2cccc(Cl)c2[nH]1)C1CCOCC1 [Example 72, 7-chloro-N-methyl-N-(oxan-4-yl)-1H-indole-2-carboxamide] as the molecule, how does the IC50 (Homo sapiens, LNCaP, 48 h) read?
Its IC50 is > 10000 nM.

For CN(CC1CCCC1)C(=O)c1cc2cccc(Cl)c2[nH]1 [Example 70, 7-Chloro-N-(cyclopentylmethyl)-N-methyl-1H-indole-2-carboxamide], which IC50 (Homo sapiens, LNCaP, 48 h) is on record?
The IC50 was 1000 to 10000 nM.

For CN(C(=O)c1cc2cccc(Cl)c2[nH]1)C1CCOC1 (centres unmarked) [Example 31, 7-chloro-N-methyl-N-(oxolan-3-yl)-1H-indole-2-carboxamide], which IC50 (Homo sapiens, LNCaP, 48 h) is on record?
Its IC50 is 100 to 1000 nM.

For COCCN(C(=O)c1cc2cccc(Cl)c2[nH]1)c1ccc(C#N)cc1F [Example 79, 7-chloro-N-(4-cyano-2-fluorophenyl)-N-(2-methoxyethyl)-1H-indole-2-carboxamide], which IC50 (Homo sapiens, LNCaP, 48 h) is on record?
Its IC50 is 1000 to 10000 nM.

For CN(C(=O)c1cc2cccc(Cl)c2[nH]1)C1CCNC1 (centres unmarked) [Example 40, 7-chloro-N-methyl-N-(pyrrolidin-3-yl)-1H-indole-2-carboxamide trifluoroacetic acid salt], which IC50 (Homo sapiens, LNCaP, 48 h) is on record?
The IC50 was > 10000 nM.

For CN(C(=O)c1[nH]c2ccccc2c1Cl)c1ccccc1 [Example 22, 3-chloro-N-methyl-N-phenyl-1H-indole-2-carboxamide], which IC50 (Homo sapiens, LNCaP, 48 h) is on record?
Its IC50 is > 10000 nM.

Which IC50 (Homo sapiens, LNCaP, 48 h) does the source give for CN(C(=O)c1cc2cccc(Cl)c2[nH]1)C1CCCOC1 (centres unmarked) [Example 73, 7-chloro-N-methyl-N-(oxan-3-yl)-1H-indole-2-carboxamide] here?
Its IC50 is > 10000 nM.

O=C(c1cc2cccc(Cl)c2[nH]1)N(c1ccc(F)cc1)C1CCOC1 (centres unmarked) [Example 58, 7-chloro-N-(4-fluorophenyl)-N-(tetrahydrofuran-3-yl)-1H-indole-2-carboxamide] was tested. Which IC50 (Homo sapiens, LNCaP, 48 h) did it give?
Its IC50 is 100 to 1000 nM.

COCCN(C(=O)c1cc2ccc(F)cc2[nH]1)c1ncccn1 [Example 161] was tested. Which IC50 (Homo sapiens, LNCaP, 48 h) did it give?
The IC50 was 1000 to 10000 nM.

How did the IC50 (Homo sapiens, LNCaP, 48 h) turn out when CN(C(=O)c1cc2cccc(C(F)(F)F)c2o1)c1ccc(F)cc1 [Example 36, N-(4-fluorophenyl)-N-methyl-7-(trifluoromethyl)benzofuran-2-carboxamide] was run?
Its IC50 is 1000 to 10000 nM.

How did the IC50 (Homo sapiens, LNCaP, 48 h) turn out when CC(C)N(Cc1ccncc1)C(=O)c1cc2ccc(F)cc2[nH]1 [Example 10, 6-fluoro-N-isopropyl-N-(pyridin-4-ylmethyl)-1H-indole-2-carboxamide] was run?
Its IC50 is 1000 to 10000 nM.

CN(C(=O)c1cc2ccnc(Cl)c2[nH]1)C12CC(F)(C1)C2 [Example 98, 7-chloro-N-[3-fluorobicyclo[1.1.1]pentan-1-yl]-N-methyl-1H-pyrrolo[2,3-c]pyridine-2-carboxamide] was tested. Which IC50 (Homo sapiens, LNCaP, 48 h) did it give?
The IC50 was 100 to 1000 nM.

Cn1c(C(=O)NC23CC(F)(C2)C3)cc2ccnc(C3CC3)c21 [Example 120, 7-cyclopropyl-N-{3-fluorobicyclo[1.1.1]pentan-1-yl}-1-methylpyrrolo[2,3-c]pyridine-2-carboxamide] was tested. Which IC50 (Homo sapiens, LNCaP, 48 h) did it give?
Its IC50 is 1000 to 10000 nM.

How did the IC50 (Homo sapiens, LNCaP, 48 h) turn out when CN(C)C(=O)c1cc2cccc(Cl)c2[nH]1 [Example 29, 7-chloro-N,N-dimethyl-1H-indole-2-carboxamide] was run?
Its IC50 is 1000 to 10000 nM.

With O=C(NC12CC(F)(C1)C2)c1cc2ccnc(Cl)c2[nH]1 [Example 99, 7-chloro-N-[3-fluorobicyclo[1.1.1]pentan-1-yl]-1H-pyrrolo[2,3-c]pyridine-2-carboxamide] as the molecule, how does the IC50 (Homo sapiens, LNCaP, 48 h) read?
Its IC50 is 1000 to 10000 nM.

Which IC50 (Homo sapiens, LNCaP, 48 h) does the source give for CN(C(=O)c1cc2ccc(F)cc2[nH]1)c1ccncc1 [Example 15, 6-fluoro-N-methyl-N-(pyridin-4-yl)-1H-indole-2-carboxamide] here?
The IC50 was > 10000 nM.

COCCN(C(=O)c1cc2cccc(Cl)c2[nH]1)c1ccc(C#N)c(C)c1 [Example 76, 7-chloro-N-(4-cyano-3-methylphenyl)-N-(2-methoxyethyl)-1H-indole-2-carboxamide] was tested. Which IC50 (Homo sapiens, LNCaP, 48 h) did it give?
Its IC50 is 1000 to 10000 nM.

Cc1ncoc1CN(C)C(=O)c1cc2cccc(Cl)c2[nH]1 [Example 97, 7-chloro-N-methyl-N-[(4-methyl-1,3-oxazol-5-yl)methyl]-1H-indole-2-carboxamide] was tested. Which IC50 (Homo sapiens, LNCaP, 48 h) did it give?
The IC50 was > 10000 nM.

Which IC50 (Homo sapiens, LNCaP, 48 h) does the source give for CN(C(=O)c1cc2ccc(F)cc2[nH]1)c1cccnc1 [Example 14, 6-fluoro-N-methyl-N-(pyridin-3-yl)-1H-indole-2-carboxamide] here?
Its IC50 is > 10000 nM.

CNc1nccc2cc(C(=O)NC34CC(F)(C3)C4)n(C)c12 [Example 124, N-{3-fluorobicyclo[1.1.1]pentan-1-yl}-1-methyl-7-(methylamino)pyrrolo[2,3-c]pyridine-2-carboxamide] was tested. Which IC50 (Homo sapiens, LNCaP, 48 h) did it give?
The IC50 was > 10000 nM.

CN(C(=O)c1cc2cccc(Cl)c2[nH]1)C1CCOC(C)(C)C1 (centres unmarked) [Example 74, 7-chloro-N-(2,2-dimethyloxan-4-yl)-N-methyl-1H-indole-2-carboxamide] was tested. Which IC50 (Homo sapiens, LNCaP, 48 h) did it give?
Its IC50 is 1000 to 10000 nM.

With O=C(NC12CC(F)(C1)C2)c1cc2ccnc(OC3CC3)c2[nH]1 [Example 122, 7-cyclopropoxy-N-{3-fluorobicyclo[1.1.1]pentan-1-yl}-1H-pyrrolo[2,3-c]pyridine-2-carboxamide] as the molecule, how does the IC50 (Homo sapiens, LNCaP, 48 h) read?
Its IC50 is > 10000 nM.

With O=C(NC12CC(C1)C2)c1cc2ccncc2[nH]1 [Example 103, N-[bicyclo[1.1.1]pentan-1-yl]-1H-pyrrolo[2,3-c]pyridine-2-carboxamide] as the molecule, how does the IC50 (Homo sapiens, LNCaP, 48 h) read?
Its IC50 is > 10000 nM.

For CN(C(=O)c1cc2cccc(C(F)(F)F)c2[nH]1)c1ccccc1 [Example 25, N-methyl-N-phenyl-7-(trifluoromethyl)-1H-indole-2-carboxamide], which IC50 (Homo sapiens, LNCaP, 48 h) is on record?
The IC50 was 100 to 1000 nM.

For CN(C(=O)c1cc2cccc(Cl)c2[nH]1)C1CCCC1 [Example 30, 7-chloro-N-cyclopentyl-N-methyl-1H-indole-2-carboxamide], which IC50 (Homo sapiens, LNCaP, 48 h) is on record?
The IC50 was 100 to 1000 nM.

With CN(C(=O)c1cc2ccnc(OC3CC3)c2[nH]1)C12CC(F)(C1)C2 [Example 126, 7-cyclopropoxy-N-{3-fluorobicyclo[1.1.1]pentan-1-yl}-N-methyl-1H-pyrrolo[2,3-c]pyridine-2-carboxamide] as the molecule, how does the IC50 (Homo sapiens, LNCaP, 48 h) read?
Its IC50 is > 10000 nM.

For CN(C(=O)c1cc2ccnc(Cl)c2[nH]1)C1CC(F)(F)C1 [Example 101, 7-chloro-N-(3,3-difluorocyclobutyl)-N-methyl-1H-pyrrolo[2,3-c]pyridine-2-carboxamide], which IC50 (Homo sapiens, LNCaP, 48 h) is on record?
Its IC50 is 1000 to 10000 nM.

Which IC50 (Homo sapiens, LNCaP, 48 h) does the source give for CN(CC1CC1)C(=O)c1cc2cccc(Cl)c2[nH]1 [Example 32, 7-chloro-N-(cyclopropylmethyl)-N-methyl-1H-indole-2-carboxamide] here?
The IC50 was 1000 to 10000 nM.

With COCCN(C(=O)c1cc2ccc(F)cc2[nH]1)c1ccc(C#N)cn1 [Example 159] as the molecule, how does the IC50 (Homo sapiens, LNCaP, 48 h) read?
The IC50 was 1000 to 10000 nM.

For O=C(NC1CCCC1)c1cc2cccc(Cl)c2[nH]1 [Example 69, 7-chloro-N-cyclopentyl-1H-indole-2-carboxamide], which IC50 (Homo sapiens, LNCaP, 48 h) is on record?
Its IC50 is > 10000 nM.
